Columns and labels:
[1] = tested on: digestive enzymes in luminal contents; assay: Protease activity of wall homogenates digested with filtered luminal fluid with or without protease inhibitors; format: biochemical, rat; conditions: filtered luminal fluid plus inhibitor incubated with wall homogenates 3 hours at 37° C.; final 1 mM PMSF, 1.25 mg/ml (2.31 mM) ANGD
From the text: (§1) To determine if enzyme inhibition could prevent the generation of cytotoxic mediators from luminal contents, luminal fluids were pre-filtered through three glass fiber filters in series, a procedure that reduces cytotoxic activity, allowing the experiments to be focused solely on new cytotoxic mediator formation. […] The precipitate was separated following the digestion period and the supernatant collected. All samples were then aliquotted and frozen for later measurements of protease activity and neutrophil cytotoxicity.

human neutrophils = assay: Flow cytometric analysis of neutrophil cytotoxicity (PI cell death, forward scatter); format: cell-based; conditions: for increase in forward scatter: pancreatic proteases alone; for cytotoxicity to neutrophils: pure proteases at the tested concentrations
Procedure: Cytotoxicity measurement—flow cytometric analysis of neutrophil cytotoxicity: For measurements of cell death and forward scatter (a measure of cell “size”) by flow cytometry, 100 μl of sample were mixed with 100 μl of cells (10^6 cells/ml final) and after selected periods of incubation, a life/death indicator (200 μl of 2 μM propidium iodide, PI) was added. Within seconds of PI addition, the sample was tested in a flow cytometer (Beckton-Dickson FACScan; Franklin Lakes N.J.).
Flow cytometric analysis of neutrophils was carried out by plotting forward scatter (FSC) on the ordinate and FL-2 (PI fluorescence) on the abscissa. […] Two regions on the scatter plot were gated. Region 1 (R1) was for live cells, and was constructed to monitor an increase in cell size that results from bleb formation and also to observe the small uptake of PI that occur may prior to total membrane failure. […] Ten thousand cells were evaluated per sample. Cell death was reported as the percentage of total cells located in R2, i.e., Death=100%*(# in R2)/(# in R1+# in R2).

[2] = Solubility of ANGD in luminal fluid; format: physicochemical; conditions: with or without glucose; white precipitate formed
From the text: as §1

casein = assay: Protease activity measurement (Enzcheck casein kit) of proteases, homogenates and luminal fluids; format: biochemical; conditions: mixed with equal volume of PBS; fluorescence after 90 minutes; mean±SD, N=6
Procedure: In vitro studies of intestinal wall homogenate digested with proteases—enzymatic digestion of wall homogenates: Wall homogenates were rapidly thawed at 37° C. and mixed with equal volumes of PBS, TPCK-treated trypsin, TLCK-treated chymotrypsin, or elastase. Controls of the proteases alone also were created by mixing them with equal volumes of PBS. Since lower grades of trypsin are often contaminated with the activity of chymotrypsin and vice versa, trypsin pretreated with TPCK (a specific chymotrypsin inhibitor) and chymotrypsin pretreated with TLCK (a trypsin inhibitor) were used to reduce any effects of cross contamination. Before mixing with wall homogenate, the enzymes were reconstituted in PBS at the following concentrations: 1 mg/ml for TPCK-treated trypsin, 1 mg/ml for TLCK-treated chymotrypsin, and 0.5 mg/ml for elastase.
The groups were treated as follows: the luminal fluids from 5 animals were incubated separately (37° C., 3 hours) and aliquots of each sample were collected. One aliquot was filtered through 4 glass fiber pre-filters in series. The unfiltered and filtered aliquots were mixed with equal volumes of PBS (to generate the Lumen and Filtered Lumen groups, respectively) or with wall homogenate from the same animal (to generate the Wall+Lumen and Wall+Filtered Lumen groups, respectively). The Wall group was prepared by mixing wall homogenates with equal volumes of PBS. All samples were incubated at 37° C. for 3 additional hours, aliquotted, and frozen (−70° C.) for later evaluation of neutrophil cytotoxicity and protease activity.

[3] = wall homogenates digested with filtered luminal fluid with inhibitor, exposure 20, 30 or 40 minutes

solubility in the luminal fluid [2] | Compound | protease activity inhibited in the digested homogenates [1] | neutrophil cell death (human neutrophils; [3]) | neutrophil forward scatter (human neutrophils; [3]) | cytotoxicity compared to samples without PMSF (human neutrophils; PMSF added after digestion of wall homogenate by chymotrypsin, not statistically significant) | neutrophil cell death (human neutrophils; PMSF added prior to digestion of wall homogenate by chymotrypsin) | protease activity (casein) [RFU] | increase in forward scatter (human neutrophils) | cytotoxicity to neutrophils (human neutrophils)
not completely soluble | CS(=O)(=O)O.CS(=O)(=O)O.N=C(N)Nc1ccc(C(=O)Oc2ccc3cc(C(=N)N)ccc3c2)cc1 [ANGD, 6-amidino-2-naphthyl p-guanidinobenzoate dimethanesulfonate] | less effective | significantly decrease the cell death compared to controls | prevented the large increase in forward scatter |  |  |  |  | 
 | O=S(=O)(F)Cc1ccccc1 [PMSF, phenylmethylsulfonyl fluoride] | approximately half | Neither PMSF nor ANGD alone entirely prevented cell death |  | slightly increased cytotoxicity | no cell death |  |  | 
 | chymotrypsin |  |  |  |  |  | 2371±230 | significantly elevated at 90 minutes | not cytotoxic
 | elastase: pancreatic elastase from Worthington Biochemicals, 0.5 mg/ml in PBS |  |  |  |  |  | 2389±300 | greatest increase | not cytotoxic
 | trypsin |  |  |  |  |  | 300±33 | no significant effect | not cytotoxic
